# Results published in patent US9862684B2, “Modulation of K2P channels” (The Regents of the University of California, priority 2013, dated 2018).
# Biological target: T1, K2P2.1 (TREK-1) (Mus musculus, UniProt P97438)
# T1 construct: expressed in transfected cells; host or cells: Xenopus oocytes (cRNA injection, pGEMHE/pMO)
# T1 sequence (P97438 1-411 isoform P97438-2): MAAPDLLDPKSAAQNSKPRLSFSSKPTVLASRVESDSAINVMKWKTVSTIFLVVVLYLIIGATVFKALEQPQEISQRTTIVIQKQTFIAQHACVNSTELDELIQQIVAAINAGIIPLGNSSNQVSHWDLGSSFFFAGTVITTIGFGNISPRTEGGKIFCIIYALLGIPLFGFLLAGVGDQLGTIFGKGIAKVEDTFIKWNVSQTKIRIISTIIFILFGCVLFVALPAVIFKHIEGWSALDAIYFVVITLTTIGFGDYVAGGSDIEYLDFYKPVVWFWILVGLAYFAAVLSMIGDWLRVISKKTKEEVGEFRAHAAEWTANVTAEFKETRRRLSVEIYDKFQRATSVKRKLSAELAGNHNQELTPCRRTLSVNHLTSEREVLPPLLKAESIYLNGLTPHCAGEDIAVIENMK
# Test: Excised membrane patches (outside-out, inside-out) from HEK-293T cells expressing K2P2.1 (TREK-1)
# Type: cell-based, Murine
# Experimental: FIG. 5 ML67-33 activates K2P2.1 (TREK-1) in excised membrane patches a, and b, exemplar I-V curves showing the effect of ML67-33 on K2P2.1 (TREK-1) in a, outside-out and b, inside-out excised patches from HEK-293T cells; currents were elicited by a voltage ramp from −100 to 50 mV from a holding potential of −40 mV. c, Exemplar channel responses to ML67-33 measured at 0 mV in the indicated configurations. Grey region indicates presence of 20 μM ML67-33. d, Times of half-maximal activation following ML67-33 application and recovery from activation (wash) following ML67-33 removal, measured in HEK-293T cells at 0 mV. Error bars: mean±s.e. n≧6, N≧2. ‘**’ indicates p≦0.01 and ‘N.S.’ indicates not significant (p≧0.05) as determined by t-test analysis.
# Two-electrode voltage clamp recordings were performed from defolliculated stage V-VI Xenopus oocytes 24-48 hours after injection with 0.015-6.0 ng cRNA, using microelectrodes (0.3-3.0 MΩ) filled with 3M KCl. Data was acquired using the GeneClamp 500B (MDS Analytical Technologies) amplifier controlled by the pClamp software (Molecular Devices), and digitized at 1 kHz using Digidata 1332A (MDS Analytical Technologies). Recording solutions (mM): 2K (96 NaCl, 2 KCl, 1.8 CaCl2, 2 MgCl2), 90K (90 KCl, 8 NaCl, 1.8 CaCl2, 2 MgCl2), were buffered 5 mM HEPES pH 7.4. For K2P recordings, currents we elicited by a 1 second long ramp from −150 to +50 mV from a holding potential of −80 mV (2K), or −100 to +50 mV from a holding potential of 0 mV (90K). For KCNQ2 recordings, currents were elicited by a step protocol from −120 to 60 mV, in 20 mV increments, from a holding potential of −80 mV. Patch-clamp recordings from HEK-293T cells were performed using microelectrodes (2-3 MΩ) filled with 1M KCl. Data was acquired using the Axopatch 200B amplifier controlled by pClamp software, and digitized at 1 kHz using Digidata 1332A. Recording solutions (mM): intracellular (145 KCl, 5 EGTA, 3 MgCl2,) extracellular (150 NaCl, 5 KCl, 3 MgCl2, 1 CaCl2) were buffered with 5 mM HEPES pH 7.2 and 7.4, respectively. Currents were elicited by a 1 second long ramp from −150 to +50 mV from a holding potential of −80 mV. Data were fitted with a modified Hill's equation: I=Imin+(Imax−Imin)/(1+10^((Log EC50−Log [C])*H)), where Imax and Imin are maximal and minimal current values, respectively, EC50 is a half-maximal effective concentration of the compound, and H is the Hill coefficient.
# To understand the mechanism of action of ML67-33, we examined how it affected K2P2.1 (TREK-1) expressed in two widely-used experimental systems, Xenopus oocytes and mammalian cells. […] Further, the effects of ML-67-33 were fast, occurring within seconds (half-maximal activation time, 4.1±0.5 s, mean±s.e., n=7, N=2) and were reversible upon washout (FIG. 4d). […] The times of half-maximal activation and return to baseline following compound washout (t1/2act and t1/2wash, respectively) in the outside-out configuration were indistinguishable from the same parameters measured in the whole-cell configuration (t1/2act:t1/2wash, mean±s.e. 4.1±0.5 s:3.9±0.5 s and 4.6±0.9 s:3.1±0.7 s for whole-cell and outside-out, respectively, FIGS. 5c and d). In stark contrast, both t1/2 values slowed substantially when the compound was applied to the inside-out configuration.
smiles,measurement,setting,value
"CC1(C)c2cc(Cl)ccc2N(CCc2nnn[nH]2)c2ccc(Cl)cc21 [ML67-33, 2,7-dichloro-9,9-dimethyl-10-[2-(1H-tetrazol-5-yl)ethyl]acridine]",t1/2act,inside-out patch,10.8 ± 1.3 s
same,t1/2wash,inside-out patch,22.0 ± 5.1 s
same,effect on K2P2.1 (TREK-1) in excised patches (in words),outside-out and inside-out configurations,activated
same,t1/2act,outside-out patch,4.6 ± 0.9 s
same,t1/2wash,outside-out patch,3.1 ± 0.7 s
